{"source": "patent US20200045962A1", "about": "“METHOD FOR PREPARING SURFACTANT COMPOSITIONS COMPRISING ALKYL LIDURONAMIDES D-GLUCURONAMIDES AND L-RHAMNOSIDES FROM ULVANS” (ÉCOLE NATIONALE SUPÉRIEURE DE CHIMIE, priority 2016, published 2020)", "experiment_in_all_cases": "Protocol A: diffusion on agar in Petri dishes", "format_in_all_cases": "cell-based", "key": {"Escherichia coli": {"system": "Escherichia coli", "description": "(§1) The culture medium used was a mixture of 21 g/L of Muller-Hinton broth and 10 g/L of agar in water. This mixture was stirred and then left to boil. Next, a step of autoclaving of this mixture for 30 minutes was necessary in order to sterilize it before any manipulation. This culture medium was poured, while hot, into Petri dishes and then left to cool.\n(§2) 5 milligrams of RhamOC4 were dissolved in 1 mL of DMSO. Twofold serial dilution with DMSO was then performed starting with the stock solution, so as to obtain the concentrations 2.5 g·L^−1, 1.25 g·L^−1, 0.625 g·L^−1 and 0.3125 g·L^−1.\n(§3) The bacterial strains used were Pseudomonas aeruginosa, Escherichia coli, Enterococcus faecium and Staphylococcus aureus, in addition to the fungal strain Candida albicans. 10^6 bacteria were collected and then transferred into a 0.9% NaCl solution. Each Petri dish, containing the Muller-Hinton medium, was inoculated with a different bacterial suspension.\n(§4) After having left the bacterial suspensions to dry on the agar, 10 μL of the test solution (RhamOC4), at various concentrations, were deposited on the surface of the agar inoculated with the bacterial suspension. 10 μL of DMSO were placed in each Petri dish as negative control.\n(§5) The positive controls used were discs soaked with ampicillin for Escherichia coli and Enterococcus faecium, ceftazidim discs for Pseudomonas aeruginosa and vancomycin discs for Staphylococcus aureus.\n(§6) After drying, the Petri dishes were finally incubated at 37° C. in an oven for 24 hours. The antibacterial activity was evaluated by measuring the clarification zone in mm around the place of deposition of the various concentrations of the test RhamOC4 solution."}, "Enterococcus faecium": {"system": "Enterococcus faecium", "description": "as §1, §2, §3, §4, §5, §6"}, "Pseudomonas aeruginosa": {"system": "Pseudomonas aeruginosa", "description": "as §1, §2, §3, §4, §5, §6"}, "Candida albicans": {"system": "Candida albicans", "description": "as §1, §2, §3, §4, §6"}, "Staphylococcus aureus": {"system": "Staphylococcus aureus", "description": "as §1, §2, §3, §4, §5, §6"}, "[1]": {"conditions": "antibiotic disc, concentration not given"}}}
{"smiles": "CC1(C)S[C@@H]2[C@H](NC(=O)[C@H](N)c3ccccc3)C(=O)N2[C@H]1C(=O)O", "note": "[Ampicillin, ampicillin, reference compound]", "values": [{"measurement": "Clarification zone, E. coli, positive control", "setting": "Escherichia coli; [1]", "result": "(22 mm)"}, {"measurement": "Clarification zone, E. faecium, positive control", "setting": "Enterococcus faecium; [1]", "result": "(26 mm)"}]}
{"smiles": "CC(C)(O/N=C(\\C(=O)N[C@@H]1C(=O)N2C(C(=O)[O-])=C(C[n+]3ccccc3)CS[C@H]12)c1csc(N)n1)C(=O)O", "note": "[Ceftazidim, ceftazidim, reference compound]", "values": [{"measurement": "Clarification zone, P. aeruginosa, positive control", "setting": "Pseudomonas aeruginosa; [1]", "result": "(28 mm)"}]}
{"smiles": "CCCCO[C@@H]1O[C@@H](C)[C@H](O)[C@@H](O)[C@H]1O", "note": "[RhamOC4, n-butyl α-L-rhamnopyranoside]", "values": [{"measurement": "zone of inhibition at 0.3125 mg/mL", "setting": "Candida albicans; Candida albicans, 0.3125 mg·mL^−1, 10 μL, 24 hours 37° C., read-out: Clarification zone, C. albicans", "result": 0, "unit": "mm"}, {"measurement": "zone of inhibition at 0.625 mg/mL", "setting": "Candida albicans; Candida albicans, 0.625 mg·mL^−1, 10 μL, 24 hours 37° C., read-out: Clarification zone, C. albicans", "result": 0, "unit": "mm"}, {"measurement": "zone of inhibition at 1.25 mg/mL", "setting": "Candida albicans; Candida albicans, 1.25 mg·mL^−1, 10 μL, 24 hours 37° C., read-out: Clarification zone, C. albicans", "result": 5, "unit": "mm"}, {"measurement": "zone of inhibition at 2.5 mg/mL", "setting": "Candida albicans; Candida albicans, 2.5 mg·mL^−1, 10 μL, 24 hours 37° C., read-out: Clarification zone, C. albicans", "result": 14, "unit": "mm"}, {"measurement": "zone of inhibition at 5 mg/mL", "setting": "Candida albicans; Candida albicans, 5 mg·mL^−1, 10 μL, 24 hours 37° C., read-out: Clarification zone, C. albicans", "result": 18, "unit": "mm"}, {"measurement": "Capacity to inhibit growth of Candida albicans", "setting": "Candida albicans; summary of agar diffusion", "result": "very good capacity to inhibit the growth"}, {"measurement": "zone of inhibition at 0.3125 mg/mL", "setting": "Escherichia coli; Escherichia coli, 0.3125 mg·mL^−1, 10 μL, 24 hours 37° C., read-out: Clarification zone, E. coli", "result": 0, "unit": "mm"}, {"measurement": "zone of inhibition at 0.625 mg/mL", "setting": "Escherichia coli; Escherichia coli, 0.625 mg·mL^−1, 10 μL, 24 hours 37° C., read-out: Clarification zone, E. coli", "result": 0, "unit": "mm"}, {"measurement": "zone of inhibition at 1.25 mg/mL", "setting": "Escherichia coli; Escherichia coli, 1.25 mg·mL^−1, 10 μL, 24 hours 37° C., read-out: Clarification zone, E. coli", "result": 0, "unit": "mm"}, {"measurement": "zone of inhibition at 2.5 mg/mL", "setting": "Escherichia coli; Escherichia coli, 2.5 mg·mL^−1, 10 μL, 24 hours 37° C., read-out: Clarification zone, E. coli", "result": 4, "unit": "mm"}, {"measurement": "zone of inhibition at 5 mg/mL", "setting": "Escherichia coli; Escherichia coli, 5 mg·mL^−1, 10 μL, 24 hours 37° C., read-out: Clarification zone, E. coli", "result": 9, "unit": "mm"}, {"measurement": "zone of inhibition at 0.3125 mg/mL", "setting": "Staphylococcus aureus; Staphylococcus aureus, 0.3125 mg·mL^−1, 10 μL, 24 hours 37° C., read-out: Clarification zone, S. aureus", "result": 0, "unit": "mm"}, {"measurement": "zone of inhibition at 0.625 mg/mL", "setting": "Staphylococcus aureus; Staphylococcus aureus, 0.625 mg·mL^−1, 10 μL, 24 hours 37° C., read-out: Clarification zone, S. aureus", "result": 0, "unit": "mm"}, {"measurement": "zone of inhibition at 1.25 mg/mL", "setting": "Staphylococcus aureus; Staphylococcus aureus, 1.25 mg·mL^−1, 10 μL, 24 hours 37° C., read-out: Clarification zone, S. aureus", "result": 5, "unit": "mm"}, {"measurement": "zone of inhibition at 2.5 mg/mL", "setting": "Staphylococcus aureus; Staphylococcus aureus, 2.5 mg·mL^−1, 10 μL, 24 hours 37° C., read-out: Clarification zone, S. aureus", "result": 5, "unit": "mm"}, {"measurement": "zone of inhibition at 5 mg/mL", "setting": "Staphylococcus aureus; Staphylococcus aureus, 5 mg·mL^−1, 10 μL, 24 hours 37° C., read-out: Clarification zone, S. aureus", "result": 10.5, "unit": "mm"}, {"measurement": "Capacity to inhibit growth of Staphylococcus aureus", "setting": "Staphylococcus aureus; summary of agar diffusion", "result": "very good capacity to inhibit the growth"}, {"measurement": "zone of inhibition at 0.3125 mg/mL", "setting": "Enterococcus faecium; Enterococcus faecium, 0.3125 mg·mL^−1, 10 μL, 24 hours 37° C., read-out: Clarification zone, E. faecium", "result": 0, "unit": "mm"}, {"measurement": "zone of inhibition at 0.625 mg/mL", "setting": "Enterococcus faecium; Enterococcus faecium, 0.625 mg·mL^−1, 10 μL, 24 hours 37° C., read-out: Clarification zone, E. faecium", "result": 0, "unit": "mm"}, {"measurement": "zone of inhibition at 1.25 mg/mL", "setting": "Enterococcus faecium; Enterococcus faecium, 1.25 mg·mL^−1, 10 μL, 24 hours 37° C., read-out: Clarification zone, E. faecium", "result": 0, "unit": "mm"}, {"measurement": "zone of inhibition at 2.5 mg/mL", "setting": "Enterococcus faecium; Enterococcus faecium, 2.5 mg·mL^−1, 10 μL, 24 hours 37° C., read-out: Clarification zone, E. faecium", "result": 4, "unit": "mm"}, {"measurement": "zone of inhibition at 5 µg/mL", "setting": "Enterococcus faecium; Enterococcus faecium, 5 mg·mL^−1, 10 μL, 24 hours 37° C., read-out: Clarification zone, E. faecium", "result": 6, "unit": "mm"}, {"measurement": "zone of inhibition at 0.3125 mg/mL", "setting": "Pseudomonas aeruginosa; Pseudomonas aeruginosa, 0.3125 mg·mL^−1, 10 μL, 24 hours 37° C., read-out: Clarification zone, P. aeruginosa", "result": 0, "unit": "mm"}, {"measurement": "zone of inhibition at 0.625 mg/mL", "setting": "Pseudomonas aeruginosa; Pseudomonas aeruginosa, 0.625 mg·mL^−1, 10 μL, 24 hours 37° C., read-out: Clarification zone, P. aeruginosa", "result": 0, "unit": "mm"}, {"measurement": "zone of inhibition at 1.25 mg/mL", "setting": "Pseudomonas aeruginosa; Pseudomonas aeruginosa, 1.25 mg·mL^−1, 10 μL, 24 hours 37° C., read-out: Clarification zone, P. aeruginosa", "result": 0, "unit": "mm"}, {"measurement": "zone of inhibition at 2.5 mg/mL", "setting": "Pseudomonas aeruginosa; Pseudomonas aeruginosa, 2.5 mg·mL^−1, 10 μL, 24 hours 37° C., read-out: Clarification zone, P. aeruginosa", "result": 0, "unit": "mm"}, {"measurement": "zone of inhibition at 5 mg/mL", "setting": "Pseudomonas aeruginosa; Pseudomonas aeruginosa, 5 mg·mL^−1, 10 μL, 24 hours 37° C., read-out: Clarification zone, P. aeruginosa", "result": 4, "unit": "mm"}, {"measurement": "Inhibitory power on growth of Pseudomonas aeruginosa", "setting": "Pseudomonas aeruginosa; summary of agar diffusion", "result": "poor inhibitory power"}]}
{"smiles": "CN[C@H](CC(C)C)C(=O)N[C@H]1C(=O)N[C@@H](CC(N)=O)C(=O)N[C@H]2C(=O)N[C@H]3C(=O)N[C@H](C(=O)N[C@H](C(=O)O)c4cc(O)cc(O)c4-c4cc3ccc4O)[C@H](O)c3ccc(c(Cl)c3)Oc3cc2cc(c3O[C@@H]2O[C@H](CO)[C@@H](O)[C@H](O)[C@H]2O[C@H]2C[C@](C)(N)[C@H](O)[C@H](C)O2)Oc2ccc(cc2Cl)[C@H]1O", "note": "[Vancomycin, vancomycin, reference compound]", "values": [{"measurement": "Clarification zone, S. aureus, positive control", "setting": "Staphylococcus aureus; [1]", "result": "(19 mm)"}]}
